Assay [1] concerns effector (Th1, Th2) T cells. Nature of the assay: Cytoskeleton rearrangement (actin polymerization), effector T cells. It is filed as cell-based, mice. The following applies: CCL2 0.1 ng/ml. Here is the method:
T cell sorting—Spleen and […] were obtained from mice as previously described [Shachar I. and Flavell R. A., Science 274:106 (1996)]. T cells were enriched using the MACS system (Miltenyi Biotec, Auburn, Calif.) according to the manufacturer's protocol. Spleen cells were incubated with anti-CD45R (B220) magnetic beads (Miltenyi Biotec, Auburn, Calif.) and the CD45 negative cells were collected. CD4+ T cells were enriched using anti-CD4 magnetic beads (Miltenyi Biotec, Auburn, Calif.). […]
Cytoskeleton rearrangement—T cells were pre-incubated for 30 minutes in the presence or absence of CCL2 (0.1 ng/ml), and then stimulated with either CXCL12 (0.1 mg/ml PeproTech, Inc., Rocky Hill N.J.) or SLC (CCL21, 0.4 mg/ml, PeproTech, Inc., Rocky Hill, N.J.), for 15 seconds. Cells were then immediately fixed with paraformaldehyde, permeabilized and their intracellular F-actin was stained with FITC-phalloidin (Sigma-Aldrich, St. Louis, Mo.), and then analyzed by flow cytometry to determine the state of their cytoskeleton, as previously described [Flaishon, L. F., et al., J. Biol. Chem. 276:46701 (2001)].

In assay [2] the test system is human T cells interacting with VCAM-1 (VLA-4). The experiment in a line: Laminar flow adhesion assay on VCAM-1 with co-immobilized CCL21. It counts as cell-based. The conditions noted are these: low dose chemokine pretreatment. The procedure:
(§1) Laminar flow adhesion assays—Purified VCAM-1 or ICAM-1-Fc (both from R&D Systems, Minneapolis, Minn.) were coated with or without CCL21 (R&D Systems) on polystyrene plates as previously described [Grabovsky et al., J Exp Med. (2000) 192:495-506; Sigal et al., J Immunol. (2000) 165:442-452]. The polystyrene plates were each assembled on the lower wall of the flow chamber as previously described [Feigelson et al., J Biol Chem. (2001) 276:13891-13901]. All flow experiments were conducted at 37° C. Cells were washed with cation-free H/H medium, resuspended in binding medium (H/H medium supplemented with 1 mM CaCl2 and 1 mM MgCl2) and perfused through the flow chamber at low shear stress (0.5-0.75 dyn/cm^2) for 2 minutes. Tethers were defined as transient or rolling if cells attached briefly (<2 seconds) to the substrate and as arrests if immediately arrested and remaining stationary for at least 5 seconds of continuous flow. Frequencies of adhesive categories within differently pretreated cells were determined as a percentage of cells flowing immediately over the substrates, as previously described [Grabovsky et al., supra]. To assess resistance to detachment over time, accumulated cells were subjected to a shear stress of 5 dyn/cm^2 for 5 minutes. At the indicated time points, the number of cells that remained bound was expressed relative to T cell population originally accumulated in the first 2 minute period of the assay. Over 90% of cellular tethers to VCAM-1 or ICAM-1 were blocked by pretreating cells with VLA-4 or LFA-1 blockers respectively.

Assay [3] relates to naïve T cells. Nature of the assay: Tracking of cells in vivo: homing of naïve T cells to LN and spleen. On the set-up: species or system C57BL/6 mice. The conditions noted are these: cells pre-incubated 30 min with CCL2 0.1 ng/ml, injected i.v., 3 hours, vs control. Here is the method: Tracking of cells in vivo—T cells pre-incubated for 30 minutes in the presence or absence of CCL2 (0.1 ng/ml RPMI) were washed, and labeled with […] of the fluorescent dye CFDA-SE (Molecular Probes/Invitrogen, Carlsbad, Calif., USA) for 15 minutes at room temperature. Thereafter, an equal amount (0.33×10^7) of CCL2-treated or -untreated cells were injected i.v. into C57BL/6 mice. After 3 hours, LNs and spleens were collected and the FITC-positive population was analyzed by FACS. The proportion of labeled cells recovered in the LN and spleen was determined as previously described [Flaishon, L. R., J. Exp. Med. 192:1381 (2000)] in four different experiments (10 mice in each group).

The test system of assay [4] is naïve T cells. Nature of the assay: Transwell migration assay, naïve T cells. It counts as cell-based, mice. The conditions noted are these: cells pre-treated 30 min with CCL2 0.1 ng/ml, 3 hours migration. The procedure:
Stimulation of T cells—Cell stimulation was performed as previously described [Flaishon et al., J Biol Chem. (2001) 276:46701-46706]. Briefly, 1×10^7 T cells were suspended in 1 ml DMEM cell medium containing 10% (v/v) Fetal Calf Serum (FCS). Next, 0.1 ng/ml CCL2 (CytoLab) was added to each tube and the tubes were immediately placed in 37° C. for 30 minutes. Immediately after stimulation, cells were washed and handled as described hereinbelow.
Transwell migration assay—Chemotaxis was assayed using Transwell chambers as was previously described [Flaishon, L. F., et al., J. Biol. Chem. 276:46701 (2001)]. Naive T cells were suspended for 30 minutes with RPMI medium with or without CCL2 (0.1 ng/ml, Peprotech Inc., Rocky Hill, N.J.), and thereafter placed in the upper chamber of a 24 well Transwell plate, and allowed to migrate towards CXCL12 (SDF-1, 0.1 mg/ml PeproTech, Inc., Rocky Hill, N.J.) or to the secondary lymphoid tissue chemokine (SLC, CCL21, 0.4 mg/ml; PeproTech, Inc., Rocky Hill, N.J.), placed in the lower chamber. Following 3 hours, the number of the migrating cells found in the lower chamber was evaluated by FACS (FACS calibur, BD bioscience). Assay was repeated 3 times and results were analyzed as percent migration, being the number of migrating cells in the lower chamber as a fraction of the input cells in the upper chamber.

A further assay has as its system effector T cells. The experiment in a line: Transwell migration of effector T cells (data not shown). It counts as cell-based, mice. The conditions noted are these: low dose CCL2.
Assay [5] concerns human T cells interacting with ICAM-1 (LFA-1). The experiment in a line: Laminar flow adhesion assay on ICAM-1 with co-immobilized CCL21. It counts as cell-based. The conditions noted are these: low dose chemokine pretreatment. The procedure: as §1

For “CCL2: mammalian (e.g., human) CCL2 protein, GenBank NM_002982 / NP_002973; murine CCL2 used in the asthma model”, the “CCL21 induced cytoskeleton rearrangement of effector cells” value in assay [1] (CCL21 0.4 mg/ml 15 seconds) is listed as “down-regulated”. Further, the “CXCL12 induced cytoskeleton rearrangement of effector cells” value in assay [1] (CXCL12 15 seconds) is given as “down-regulated”. For the same substance, the “post arrest adhesion strengthening on VCAM-1 (resistance to detachment)” value in assay [2] (high shear stress 5 dyn/cm^2, FIG. 6d) is recorded as “failed to develop adhesion strengthening”. The “VLA-4 activation by surface bound CCL21 (arrest on VCAM-1)” value in assay [2] (shear stress 0.75 dyn/cm^2, FIG. 6c) is listed as “did not interfere”. Further, in the assay with naïve T cells [3] (FIG. 4a), the “reduction in homing of naïve T cells into the LN” value is listed as 50%. The “migration of T cells to the spleen” value with naïve T cells [3] (FIG. 4b) is reported as “no difference”. For the same substance, in the assay on naïve T cells [4] (FIG. 2a), the “inhibition of migration of naïve T cells towards CXCL12” value is reported as 40-50%. In addition, the “inhibition of migration of naïve T cells towards CCL21” value in the assay with naïve T cells [4] (FIG. 2b) was 40-50%. In addition, in the assay with effector T cells, the “CCL21 induced transwell migration of effector cells” value was “down-regulated” and the “CXCL12 induced transwell migration of effector cells” value was “down-regulated”. The “post arrest adhesion strengthening on ICAM-1 (resistance to detachment)” value in assay [5] (high shear stress 5 dyn/cm^2, FIG. 6b) is recorded as “failed to develop adhesion strengthening”. Also, in assay [5] (shear stress 0.5 dyn/cm^2, FIG. 6a), the “LFA-1 activation by surface bound CCL21 (arrest on ICAM-1)” value is “did not interfere”.

The record behind these values is patent US7919077B2, “Pharmaceutical compositions comprising CCL2 and use of same for the treatment of inflammation” (Yeda Research and Development Co. Ltd., priority 2006, dated 2011).
